According to patent US12233161B1, “Lipids and lipid nanoparticle formulations” (LONGUIDE BIOPHARMA CORPORATION, priority 2024, dated 2025):

Legend:
[1] = test system: mice; assay: In vivo delivery of FLuc-mRNA lipid nanoparticles in mice, in vivo imaging (IVIS); conditions: for IVIS: Fluc-mRNA
Procedure, shortened: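 Mice (n=3) received about 75 μL FLuc-mRNA LNP per mouse intramuscularly (rectus femoris), intravenously (tail vein), intraperitoneally or subcutaneously (back). After injection, D-luciferin (200 μL, 15 mg/mL) was given i.p. 10-15 min before IVIS imaging.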

[2] = test system: mice; assay: In vivo delivery of FLuc-circ-RNA lipid nanoparticles in mice; conditions: Fluc-circ-RNA LNP, IV
Method: Lipid nanoparticles loaded with nucleic acid drugs were prepared according to step 2, replacing FLuc-mRNA with FLuc-circ-RNA (Hongene Biotech Corporation, Shanghai). After formulation, the nanoparticles were administered via intramuscular injection (into the quadriceps femoris muscle of mice), intravenous injection (into the tail vein of mice), intraperitoneal injection, or subcutaneous injection (subcutaneously on the back). Approximately 75 μL was injected per mouse, with a total of 3 mice per group. In vivo imaging (PerkinElmer, IVIS Lumina III) was performed after a certain period of time. Ten to fifteen minutes before imaging, 200 μL of a 15 mg/mL D-Luciferin working solution was injected intraperitoneally, followed by imaging analysis using the in vivo imaging system.

[3] = Particle size and PDI of nucleic acid lipid nanoparticle preparations by dynamic light scattering; assay type: physicochemical
Procedure, shortened: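 Size read by DLS after diluting the LNP preparation (approx. 0.04 mg/mL mRNA) in ultrapure water with gentle pipette mixing. The same sample, recovered and diluted further with water, was then used for zeta potential measurement.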

[4] = Potential characterization of nucleic acid lipid nanoparticle preparations; assay type: physicochemical; conditions: Fluc-circ-RNA LNP, preparation given IV
Procedure, shortened: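 Nanoparticles (about 0.04 mg/mL mRNA) were diluted in ultrapure water for Malvern ZEN3700 measurement: 20 μL into 780 μL for potential alone, or 27.5 μL into 200 μL for DLS particle size followed by addition of 600 μL water for potential.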

[5] = IV, liver, DMG-PEG2000:DOPE:Chol:compound 1.40:11.15:38.95:48.50, N/P 30
[6] = IV, liver, DMG-PEG2000:DSPC:Chol:compound 1.00:11.50:27.50:60.00, N/P 30
[7] = IV, lung, DMG-PEG2000:DOPE:Chol:compound 1.40:11.15:38.95:48.50, N/P 30
[8] = IV, lung, DMG-PEG2000:DSPC:Chol:compound 1.00:11.50:27.50:60.00, N/P 30
[9] = IV, spleen, DMG-PEG2000:DOPE:Chol:compound 1.40:11.15:38.95:48.50, N/P 30
[10] = IV, spleen, DMG-PEG2000:DSPC:Chol:compound 1.00:11.50:27.50:60.00, N/P 30
[11] = DMG-PEG2000:DOPE:Chol:compound 1.40:11.15:38.95:48.50, N/P 30
[12] = DMG-PEG2000:DSPC:Chol:compound 1.00:11.50:27.50:60.00, N/P 30
[13] = Fluc-circ-RNA LNP, preparation given IV

[2H]C([2H])([2H])[N+](CCCN(CC(O)C(=O)NCCCCCCCCCCCC)CC(O)C(=O)NCCCCCCCCCCCC)(CCCN(CC(O)C(=O)NCCCCCCCCCCCC)CC(O)C(=O)NCCCCCCCCCCCC)C([2H])([2H])[2H] (stereo not shown) [Compound L0346]
IVIS ([1]; IM, DMG-PEG2000:DOPE:Chol:compound 1.40:11.15:38.95:48.50, N/P 30): 3.49E+05 | IVIS ([1]; IV, body, DMG-PEG2000:DOPE:Chol:compound 1.40:11.15:38.95:48.50, N/P 30): 1.95E+08 | IVIS ([1]; IV, body, DMG-PEG2000:DSPC:Chol:compound 1.00:11.50:27.50:60.00, N/P 30): 3.93E+08 | % of organ targeting [1, 5]: 0.84% | IVIS [1, 5]: 2.65E+06 | % of organ targeting [1, 6]: 0.56% | IVIS [1, 6]: 7.32E+06 | % of organ targeting [1, 7]: 98.01% | IVIS [1, 7]: 3.10E+08 | % of organ targeting [1, 8]: 98.90% | IVIS [1, 8]: 1.28E+09 | % of organ targeting [1, 9]: 1.16% | IVIS [1, 9]: 3.66E+06 | % of organ targeting [1, 10]: 0.54% | IVIS [1, 10]: 6.96E+06 | % of organ targeting ([2]; liver): 0.87% | % of organ targeting ([2]; lung): 98.45% | % of organ targeting ([2]; spleen): 0.69% | PDI [3, 11]: 0.38 | Particle size (nm) [3, 11]: 78.75 nm | PDI [3, 12]: 0.23 | Particle size (nm) [3, 12]: 157.00 nm | PDI [3, 13]: 0.24 | Particle size (nm) [3, 13]: 161.2 nm | Zeta potential (mV) [4]: 14.23 mV
